Results taken from patent US8853230B2, “Inhibitors of JAK” (Portola Pharmaceuticals, Inc., priority 2009, dated 2014).

Assays:
[1] = biological target: T1, JAK2 (Homo sapiens, UniProt O60674); test: Z'-LYTE kinase assay, JAK2 tyrosine phosphorylation activity; type: biochemical
T1 construct: 5 μl of catalytic domain recombinant Kinase enzyme+Tyr peptide substrate (Invitrogen, Calif.); purchased Invitrogen
How it was run: (§1)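 FRET-based Z′-LYTE format with recombinant catalytic-domain kinases and Tyr6 peptide substrate; compounds in 1% DMSO final, duplicate wells. Kinase reaction with ATP runs 1 h at room temperature, then protease development 1 h; fluorescence read at ex 400, em 445/520 nm. IC50 from 4-parameter logistic fit of percent phosphorylation versus uninhibited.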

[2] = biological target: T2, JAK1 (Homo sapiens, UniProt P23458); test: Z'-LYTE kinase assay, JAK1 tyrosine phosphorylation activity; type: biochemical; details: read-out: JAK 1 IC50
T2 construct: 5 μl of catalytic domain recombinant Kinase enzyme+Tyr peptide substrate (Invitrogen, Calif.); purchased Invitrogen
How it was run: as §1

[3] = biological target: T3, JAK3 (Homo sapiens, UniProt P52333); test: Z'-LYTE kinase assay, JAK3 tyrosine phosphorylation activity; type: biochemical
T3 construct: 5 μl of catalytic domain recombinant Kinase enzyme+Tyr peptide substrate (Invitrogen, Calif.); purchased Invitrogen
How it was run: as §1

[4] = system: IL4-induced phospho STAT6 formation in Ramos B lymphocytes; test: Inhibition of IL4-induced phospho STAT6 formation in Ramos B lymphocytes (flow cytometry); type: cell-based, human; details: Homo sapiens; for inhibition at 0.2 µM: 200 nM compound, read-out: % Inhibition of IL-4 Induced STAT6 Phosphorylation 200 nM; for inhibition at 1 µM: 1 μM compound, read-out: % Inhibition of IL-4 Induced STAT6 Phosphorylation 1 μM
Source text: Similar types of assays can be used to assess JAK inhibitory activity and to determine the degree of selectivity of the particular compound as compared to syk. One means of assaying for such inhibition is detection of the effect of the compounds of the present invention on the upregulation of downstream gene products. In the Ramos/IL4 assay, B-cells are stimulated with the cytokine Interleukin-4 (IL-4) leading to the activation of the JAK/Stat pathway through phosphorylation of the JAK family kinases, JAK1 and JAK3, which in turn phosphorylate and activate the transcription factor Stat-6. […] To study the effect of inhibitors (e.g., the 2,4-substituted pyrimindinediamine compounds described herein) on the JAK1 and JAK3, human Ramos B-cells are stimulated with human IL-4. 10′ post-stimulation, cells are subjected to intracellular flow cytometry to measure the extent of STAT-6 phosphorylation. 20 to 24 hours post-stimulation, cells are stained for upregulation of CD23 and analyzed using flow cytometry.
Inhibition of IL4-induced phospho STAT6 formation was measured by pre-incubating 0.5 million Ramos B lymphocytes (ATCC) with 5 μl compound or DMSO vehicle for 1 hour at 37° C./5% CO2. Cells were activated by addition of 1 ng/ml [f]IL4 (R & D Research Systems) for 10 min at 37° C./5% CO2 and then fixed by addition of 1.6% [f]PFA (Electron Microscopy Services). Following a PBS wash step and permaeabilization with 100% methanol, cells were incubated with ALEXA-conjugated anti-phosphoSTAT6 (Y641) antibody (BD 612600). The extent of cell associated-fluorescence was determined by flow cytomentry and data expressed as mean fluorescent intensity. The extent of inhibition of the IL4-induced signal was then calculated.

[5] = biological target: T4, TYK2 (Homo sapiens, UniProt P29597); test: Z'-LYTE kinase assay, TYK2 tyrosine phosphorylation activity; type: biochemical
T4 construct: 5 μl of catalytic domain recombinant Kinase enzyme+Tyr peptide substrate (Invitrogen, Calif.); purchased Invitrogen
T4 sequence (P29597 897-1176 limits assumed): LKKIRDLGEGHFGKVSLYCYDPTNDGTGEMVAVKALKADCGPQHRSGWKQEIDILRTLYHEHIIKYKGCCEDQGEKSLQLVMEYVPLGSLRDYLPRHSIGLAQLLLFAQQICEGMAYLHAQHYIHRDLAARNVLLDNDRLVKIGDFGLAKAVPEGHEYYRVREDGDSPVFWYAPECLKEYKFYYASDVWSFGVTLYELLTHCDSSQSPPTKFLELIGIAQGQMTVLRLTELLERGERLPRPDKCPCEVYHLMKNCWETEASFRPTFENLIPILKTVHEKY
How it was run: as §1

T1 sequence (O60674 849-1124 limits assumed): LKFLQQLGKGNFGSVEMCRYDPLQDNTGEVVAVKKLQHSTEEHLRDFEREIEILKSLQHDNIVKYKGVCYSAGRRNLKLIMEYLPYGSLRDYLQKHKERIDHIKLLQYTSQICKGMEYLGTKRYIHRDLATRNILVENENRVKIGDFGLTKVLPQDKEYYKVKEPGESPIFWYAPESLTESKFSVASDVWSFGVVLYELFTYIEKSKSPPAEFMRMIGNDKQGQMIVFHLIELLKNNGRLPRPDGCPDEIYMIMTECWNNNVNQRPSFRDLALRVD
T2 sequence (P23458 875-1153 limits assumed): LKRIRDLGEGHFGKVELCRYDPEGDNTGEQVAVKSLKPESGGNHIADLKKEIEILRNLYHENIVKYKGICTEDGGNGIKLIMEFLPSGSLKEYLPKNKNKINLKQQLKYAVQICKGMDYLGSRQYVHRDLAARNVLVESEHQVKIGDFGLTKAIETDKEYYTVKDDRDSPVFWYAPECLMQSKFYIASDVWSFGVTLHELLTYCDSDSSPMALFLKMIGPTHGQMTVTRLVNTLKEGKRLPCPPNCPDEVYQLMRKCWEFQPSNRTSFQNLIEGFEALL
T3 sequence (P52333 822-1111 limits assumed): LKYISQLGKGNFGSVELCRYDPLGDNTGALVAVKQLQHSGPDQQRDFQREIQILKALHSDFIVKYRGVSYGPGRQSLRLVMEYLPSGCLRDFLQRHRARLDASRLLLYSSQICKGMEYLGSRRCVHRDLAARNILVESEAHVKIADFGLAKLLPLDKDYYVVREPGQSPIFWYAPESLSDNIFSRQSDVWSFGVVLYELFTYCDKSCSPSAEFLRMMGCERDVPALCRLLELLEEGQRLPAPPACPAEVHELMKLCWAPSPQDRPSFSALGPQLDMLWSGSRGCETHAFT

Row | Structure (SMILES) | IC50 [1] [µM] | IC50 [2] [µM] | IC50 [3] [µM] | IC50 [5] [µM] | inhibition at 0.2 µM [4] [%] | inhibition at 1 µM [4] [%]
1 | COC[C@H]1CCCN1C(=O)Nc1cccc(Nc2ncc(C(N)=O)c(N[C@H](C)c3ccccc3)n2)c1 [Example 149, 2-(3-((R)-2-(methoxymethyl)pyrrolidine-1-carboxamido)phenylamino)-4-((R)-1-phenylethylamino)pyrimidine-5-carboxamide] | 0.01 to 0.1 | 0.1 to 1 | 0.001 to 0.01 | 0.01 to 0.1 | 6.7 | 44
2 | NC(=O)c1cnc(Nc2ccc(Cl)c(NC(=O)N3CCCCC3)c2)nc1NCc1ccccc1 [Example 209, 4-(benzylamino)-2-(4-chloro-3-(piperidine-1-carboxamido)phenylamino)pyrimidine-5-carboxamide] | > 1 | > 1 | 0.001 to 0.01 | 0.1 to 1 | 0.3 | 1
3 | CC(=O)Nc1cc(Nc2ncc(C(N)=O)c(N[C@H](C)c3ccccc3)n2)ccc1Cl [Example 108, (R)-2-(3-acetamido-4-chlorophenylamino)-4-(1-phenylethylamino)pyrimidine-5-carboxamide] | 0.01 to 0.1 | 0.1 to 1 | 0.001 to 0.01 | 0.01 to 0.1 | 21.3 | 70
4 | COC[C@H]1CCCN1C(=O)Nc1cccc(Nc2ncc(C(N)=O)c(NCc3ccccc3)n2)c1 [Example 147, (R)-4-(benzylamino)-2-(3-(2-(methoxymethyl)pyrrolidine-1-carboxamido)phenylamino)pyrimidine-5-carboxamide] | 0.01 to 0.1 | 0.01 to 0.1 | 0.001 to 0.01 | 0.001 to 0.01 | 28.7 | 82
5 | NC(=O)c1cnc(Nc2cccc(NC(=O)N3CC[C@H](O)C3)c2)nc1NCc1ccccc1 [Example 143, (S)-4-(benzylamino)-2-(3-(3-hydroxypyrrolidine-1-carboxamido)phenylamino)pyrimidine-5-carboxamide] | 0.01 to 0.1 | 0.01 to 0.1 | 0.001 to 0.01 | 0.001 to 0.01 | 44.7 | 85.7
6 | NC(=O)c1cnc(Nc2cccc(NC(=O)C3CCOC3)c2)nc1NCc1ccccc1 (stereo not drawn) [Example 203, 4-(benzylamino)-2-(3-(tetrahydrofuran-3-carboxamido)phenylamino)pyrimidine-5-carboxamide] | 0.01 to 0.1 | 0.01 to 0.1 | 0.001 to 0.01 | 0.001 to 0.01 | 80 | 106

Second part, led by results:

Row | IC50 [1] [µM] | IC50 [2] [µM] | IC50 [3] [µM] | IC50 [5] [µM] | Structure (SMILES) | inhibition at 0.2 µM [4] [%] | inhibition at 1 µM [4] [%]
7 | 0.01 to 0.1 | 0.01 to 0.1 | < 0.001 | 0.001 to 0.01 | CC(=O)Nc1cc(Nc2ncc(C(N)=O)c(NCc3ccccc3)n2)ccc1OCCN1CCCC1 [Example 244, 2-(3-acetamido-4-(2-(pyrrolidin-1-yl)ethoxy)phenylamino)-4-(benzylamino)pyrimidine-5-carboxamide] | 51.3 | 94.7
8 | 0.01 to 0.1 | 0.01 to 0.1 | 0.001 to 0.01 | 0.001 to 0.01 | NC(=O)c1cnc(Nc2cccc(NC(=O)N3CCC3)c2)nc1NCc1ccccc1 [Example 222, 2-(3-(azetidine-1-carboxamido)phenylamino)-4-(benzylamino)pyrimidine-5-carboxamide] | 47.7 | 86.7
9 | 0.01 to 0.1 | 0.01 to 0.1 | 0.001 to 0.01 | 0.01 to 0.1 | NC(=O)c1cnc(Nc2ccc(F)c(NC(=O)N3CCC3)c2)nc1NCc1ccccc1 [Example 234, 2-(3-(azetidine-1-carboxamido)-4-fluorophenylamino)-4-(benzylamino)pyrimidine-5-carboxamide] | 34.3 | 77
10 | 0.1 to 1 | 0.1 to 1 | 0.01 to 0.1 | 0.1 to 1 | CC(=O)Nc1cccc(Nc2cc(NCc3ccccc3)c(C(N)=O)cn2)c1 [Example 213, 6-(3-acetamidophenylamino)-4-(benzylamino)nicotinamide] | 11.3 | 35.3
